Measured values: US8642350B2, “Sensor material and uses thereof to simultaneously sense two analytes: oxygen and pH or acidic/basic gaseous ions” (University College Cork, National University of Ireland, …, priority 2010, dated 2014)

Assays:
Type in all cases: physicochemical
[1] = Oxygen calibration by phosphorescence lifetime (quenching by dissolved O2); settings: for quenching by dissolved O2: sensors in aqueous solutions, 0-21 kPa O2; for Lifetime 0% O2 / Lifetime 21% O2: solid state sensor form; for Lifetime 0% O2: 0% O2, 24° C.; for Lifetime 21% O2: 21% O2, 24° C.
Experimental: (§1) FIG. 2: Oxygen calibration in the phosphorescence lifetime (A) and Stern-Volmer (right) scales for the Pt-OEP-CH═N—CH3 (♦) and Pd-OEP-CH═N—CH3 (▪) sensors, measured in sodium acetate, pH 6 at 24° C. (B). pH calibration of Pt-OEP-CH═N—CH3 (absorbance) at certain pH steps, the two black bars show the bandwidth of commercial LEDs at 400 nm and 450 nm (C) and of Pt-OEP-CH═N—CH3 (♦) and Pd-OEP-CH═N—CH3 (▪) at 24° C. and 30° C. respectively (emission intensity) (D), measured in sodium acetate.
(§2) This cocktail of sensor components was applied in 2 μl aliquots on a solid support (e.g. Mylar® foil or microporous polymeric membrane) and left to evaporate all the solvents. […] Other sensor formulations can also be used, such formulations are known to specialists in the area.
(§3) Thin film (˜5 μm) sensor coatings produced according to Table 1 were studied for their photophysical, O2 and pH sensing properties.
The unquenched phosphorescence lifetime of 70 μs in O2-free buffer (at 24° C.) was close to that of the other Pt-porphyrins and O2 sensors on their basis. In air-saturated solution (20.9 kPa or 250 μM) the lifetime was reduced by approximately 60%. […] Full O2 calibrations of the two sensors show a pronounced non-linearity of Stern-Volmer plots (in FIG. 2B).

[2] = pH calibration (pKa) of solid state sensors by absorbance / phosphorescence intensity; settings: for pH range covered by the sensor: air-saturated buffer; for pKa value (21% O2) 0 mM NaCl / pKa value (21% O2) 500 mM NaCl: solid state sensor form
Experimental: as §1, §2, §3
With respect to their pH sensitivity, the two sensors produced the anticipated spectral responses which occurred in the useful range of pH. […] However, the decrease in phosphorescence intensity signal occurred without any significant changes in the phosphorescence lifetime.

[3] = Absorption and emission spectra of thin film sensor coatings; settings: solid state sensor form
Source text: On the other hand, protonation of the peripheral group (Schiff base) leads to the formation of a delocalised carbocation represented by 10 resonant structures. This process is accompanied by major spectral changes: a shift in absorbance peak from 398 nm to 443 nm and the disappearance of the porphyrin type of electronic spectra and phosphorescence. The process is reversible and potentially allows for sensing of the protonation or pH changes by means of absorbance or phosphorescence measurements.
as §2, §3

SMILES	cross-sensitivity of O2 response to pH ([1]; phosphorescence lifetime modality)	O2 range the dual-analyte sensor is well suited for ([1]; physiological range)	unquenched lifetime ([1]; sensor, unquenched)	quenching by dissolved O2 [1]	Lifetime 0% O2 [1]	Lifetime 21% O2 [1]	pH range covered by the sensor ([2]; 24° C.)	pH range the dual-analyte sensor is well suited for ([2]; physiological range)	pKa value (21% O2) 0 mM NaCl ([2]; 24° C.)	pKa value (21% O2) 0 mM NaCl ([2]; 30° C.)	pKa value (21% O2) 500 mM NaCl ([2]; 24° C.)	pKa value (21% O2) 500 mM NaCl ([2]; 30° C.)	Emission [3]	Absorption ([3]; pH 2.0)	Absorption ([3]; pH 8.0)	reduction of lifetime in air-saturated solution ([1]; air-saturated solution (20.9 kPa or 250 μM O2))	unquenched phosphorescence lifetime ([1]; sensor in O2-free buffer, 24° C.)	pKa more acidic than the Pd-OEP-CH═N—CH3 sensor ([2]; difference between the two sensors)
CN=CC1=C2N=C(C=c3c(C)c(CCC(=O)OC)c4[n]3[Pd][n]3c(c(C)c(CCC(=O)OC)c31)C=C1N=C(C=4)C(C)=C1CCC(=O)OC)C(CCC(=O)OC)=C2C [Pd—CPE—CH═NMe]	no cross-sensitivity to pH	0 to 200 µM	147 µs	more favorable quenchability	172 (24° C.) μs	33 (24° C.) μs	6.5-8.0	6-8	5.9 (24° C.)	6.9 (30° C.)	5.5 (24° C.)	6.5 (30° C.)	673 nm	443 (pH 2.0) nm	398 (pH 8.0) nm			
CCC1=C(CC)c2cc3[n-]c(c(C=NC)c4nc(cc5[n-]c(cc1n2)c(CC)c5CC)C(CC)=C4CC)c(CC)c3CC.[Pt+2] [Pt—OEP—CH═NMe]				moderate quenching	60 (24° C.) μs	36 (24° C.) μs	5-7		4.3 (24° C.)	5.9 (30° C.)		5.5 (30° C.)	670 nm	443 (pH 2.0) nm	398 (pH 8.0) nm	approximately 60%	70 μs	~1 pH unit
